Measurements published in patent publication US20110104103A1, “Method of conjugating therapeutic compounds to cell targeting devices via metal complexes” (KREATECH BIOTECHNOLOGY B.V., priority 2005, published 2011).
Entries after “also recorded” stand apart in the source; their conditions may differ. Each block holds one compound with its values, some of them ahead of it.

Assays:
[1] = test system: endothelial cells (HUVEC); assay: Binding of 89Zr-radiolabeled RGD-equipped complex to endothelial cells; design: species or system human; details: 4° C. for 4 h
Method: The interaction of cell targeting complexes with target cells was investigated in cultured target cells. Typically, in vitro targeting studies were performed by incubating target cells with the complexes, at either 4° C. or 37° C. Binding and/or internalization of the complexes by target cells was detected by either immunohistochemical staining for the complex (e.g. anti-HSA or anti-LZM staining) or by quantification of a radioactive reporter group that had been introduced in the complex (e.g. ^125I).
Binding of RGD-equipped complexes to endothelial cells was studied using ^89Zr-radiolabeled compounds.

[2] = test system: activated hepatic stellate cells (HSC); assay: Immunohistochemical staining of fibrosis markers in HSC after 24 h incubation; format: cell-based; details: conjugates 1 mg/ml (100 μM PTX), non-targeted PTX 1 mM
Method: The pharmacological effects of the conjugates were tested on different cultured cell types, e.g. activated hepatic stellate cells (HSC), kidney tubular cells (HK-2 cells) or human umbilical cord endothelial cells (HUVEC). Typically, cells were incubated for 24 h at 37° C. with the conjugates. Subsequently, the cells were subjected to analyses related to pharmacological activity of the coupled drug (gene expression analysis, immunohistochemcial evaluation of effect markers), or assays related to potential cytotoxicity of the complexes (cell viability assays, apoptosis assays).
FIG. 5. […] Cells were stained for collagen type I or α-smooth muscle actin and counterstained with hematoxillin. […] Magnification 10×. One of the hallmarks of liver fibrosis is the induced expression and production of a-smooth muscle actin (aSMA) and collagen type 1 by activated HSC. These proteins were therefore selected as read-out parameters of the antifibrotic effects of the targeted PTX.

I/R rats = assay: Unilateral ischemia/reperfusion injury (I/R) model; format: in vivo
[3] = Organ distribution and liver losartan levels in BDL rats; format: in vivo
Method: The extraction was performed by adding 3 ml of methyl butyl ether to 200 μl of liver homogenate and vortexing for 5 min. Layers were separated by centrifugation at 900×g for 5 min and the aqueous layer was frozen in liquid nitrogen. The upper organic layer was transferred to another borosilicate glass tube and evaporated completely at 60° C. The extraction procedure was repeated twice and the total residue was reconstituted in 200 μl of mobile phase. Chromatography was carried out using a C18 (C18, 5 μm, 4.6×150 mm) reversed-phase column (Surefire, Waters Inc., Milford, Mass., USA) at 40° C. with an isocratic mobile phase consisting of acetonitrile-water-trifluoroacetic acid (30:70:0.1, v/v/v; pH 2.0).

[4] = test system: hepatic fibrosis in BDL rats; assay: Antifibrotic effect of losartan-cisULS-M6PHSA in BDL model of liver fibrosis; format: in vivo; details: four daily doses
Method: Ten minutes after the last dose, animals were sacrificed and blood and liver samples were obtained. […] The extraction was performed by adding 3 ml of methyl butyl ether to 200 μl of liver homogenate and vortexing for 5 min. Layers were separated by centrifugation at 900×g for 5 min and the aqueous layer was frozen in liquid nitrogen. The upper organic layer was transferred to another borosilicate glass tube and evaporated completely at 60° C. The extraction procedure was repeated twice and the total residue was reconstituted in 200 μl of mobile phase. Chromatography was carried out using a C18 (C18, 5 μm, 4.6×150 mm) reversed-phase column (Surefire, Waters Inc., Milford, Mass., USA) at 40° C. with an isocratic mobile phase consisting of acetonitrile-water-trifluoroacetic acid (30:70:0.1, v/v/v; pH 2.0).
Animal experiments were performed as described above.

[5] = 5 mg/kg of free SB202190, 4 h after administration; cited from earlier work
[6] = test system: IL8 gene expression in HUVEC treated with TNF; assay: IL8 gene expression in TNF-treated HUVEC; format: cell-based, human; details: 10 μM
[7] = Drug release studies (stability of drug-carrier linkage); format: in vitro ADME
Method: The stability of the drug-carrier linkage was investigated by incubating cell targeting complexes at 37° C. under several conditions, e.g. buffers, buffers spiked with drug releasing substances or biological media.

[8] = Platinum-related toxicity of SB202190-cisULS-LZM in normal rats; format: in vivo, Male Wistar rats
Source text: In addition to drug related effects, we investigated whether administration of cell targeting complexes to healthy rats induced potential platinum related toxicity. Since the kidney is one of the major sites of platinum toxicity of cytostatic compounds, we performed these studies with SB202190-cisULS-LZM which accumulates in the kidney. We investigated morphology and induction of apoptosis (TUNEL staining), as well as basic renal parameters.
In order to detect potential platinum-related toxicity of kidney directed cell targeting complexes, we evaluated SB202190-cisULS-LZM in healthy rats.
To examine the effect on renal function, serum and urine creatinine levels were determined and creatinine clearances were calculated. […] To calculate proteinuria for the SB202190-cisULS-LZM group, the mean of the urinary protein levels at different days was taken. TUNEL stainings were performed on frozen kidney sections to examine the number of apoptotic cells. In addition, we determined the platinum levels in kidneys using […] after digestion of the tissue in concentrated nitric acid for 24 h at room temperature and heating at 70° C. until the formation of clear solution.

[9] = Pharmacokinetic evaluation of kidney directed complexes in healthy rats; format: in vivo, Wistar rats
Method: Organ distribution studies with this type of cell targeting complexes were performed in healthy Wistar rats. All in vivo experiments were approved by the Local Committee for Care and Use of Laboratory Animals.
Rats were injected intravenously with a single dose of the SB202190-cisULS-lysozyme conjugate (16 mg/kg equivalent to 376 μg/kg of SB202190; dissolved in 5% glucose) via the penile vein. Animals were sacrificed at different time points between 1 and 72 h after administration. Blood samples were collected by heart puncture and kidneys were isolated after flushing the organs gently with saline. Serum and organs were snap-frozen into liquid nitrogen immediately. Urine samples were collected using metabolic cages and combined with the urine collected from urinary bladder after sacrificing the animals. Kidneys were weighed, homogenized (1:3 w/v in PBS, Turrax homogenization) and then stored at −80° C. Released drug amounts were estimated by HPLC analysis after extraction as described before. To estimate total drug (bound plus released), samples were treated with KSCN to release SB202190 from the ULS linker as described above and then subjected to HPLC analysis. Anti-LZM immunohistochemical staining was performed on cryostat kidney sections to detect the uptake of the conjugate in tubular cells.
Renal drug levels were assayed in KSCN-treated kidney homogenates and serum samples using HPLC methods optimized for the respective drugs. Y27632 was analyzed on a C18 reversed-phase SunFire™ column C18 using a mobile phase of water-methanol-trifluoroacetic acid (86:14:0.1, v/v/v; pH 2.0) at a flow rate of 1 ml/min. TKI was analyzed on the same column using a mobile phase consisted of water-acetonitrile-trifluoroacetic acid (91:09:0.1, v/v/v; pH 2.0) at a flow rate of 1 ml/min.

UUO rats = assay: Unilateral ureteral obstruction (UUO) model of renal fibrosis; format: in vivo; details: day 3
Method: Animals were divided into 4 groups: normal rats, fibrotic control animals (vehicle, 5% glucose), TKI-LZM (25 mg/kg equiv. to 630 μg/kg TKI) and free, unconjugated TKI (630 μg/kg). TKI was dissolved in 20% hydroxylpropyl-β-cyclodextrin in water with 5% DMSO, whereas TKI-LZM was dissolved in 5% glucose. To allow unhindered uptake of the products in the kidneys, rats were injected intravenously with either of these compounds 2 h before the uretheral obstruction. Left kidneys and ureter were exposed via a flank-incision under isoflurane anesthesia after which the ureter was ligated at three sites with 4-0 silk near the hilum. After 3 days, animals were sacrificed under anesthesia and kidneys were gently flushed and harvested. Kidney cortex pieces were snap-frozen to isolate RNA as described above. Kidney pieces were fixed in 4% formalin solution in PBS to make paraffin-embedded sections for anti-α-SMA and ED-1 immunohistochemical staining and morphometric analysis.

[10] = target: T1, αvβ3-integrin expressed on the surface of HUVEC (Homo sapiens, UniProt P05106+P06756); assay: Competitive displacement of 125I-labeled echistatin; details: displacement of 125I-echistatin, read-out: IC50 (binding affinity)
T1 construct: αvβ3-integrin expressed on the surface of HUVEC; endogenous in cells; host or cells: HUVEC (confluent monolayers)
T1 sequence (P06756 31-889 limits assumed): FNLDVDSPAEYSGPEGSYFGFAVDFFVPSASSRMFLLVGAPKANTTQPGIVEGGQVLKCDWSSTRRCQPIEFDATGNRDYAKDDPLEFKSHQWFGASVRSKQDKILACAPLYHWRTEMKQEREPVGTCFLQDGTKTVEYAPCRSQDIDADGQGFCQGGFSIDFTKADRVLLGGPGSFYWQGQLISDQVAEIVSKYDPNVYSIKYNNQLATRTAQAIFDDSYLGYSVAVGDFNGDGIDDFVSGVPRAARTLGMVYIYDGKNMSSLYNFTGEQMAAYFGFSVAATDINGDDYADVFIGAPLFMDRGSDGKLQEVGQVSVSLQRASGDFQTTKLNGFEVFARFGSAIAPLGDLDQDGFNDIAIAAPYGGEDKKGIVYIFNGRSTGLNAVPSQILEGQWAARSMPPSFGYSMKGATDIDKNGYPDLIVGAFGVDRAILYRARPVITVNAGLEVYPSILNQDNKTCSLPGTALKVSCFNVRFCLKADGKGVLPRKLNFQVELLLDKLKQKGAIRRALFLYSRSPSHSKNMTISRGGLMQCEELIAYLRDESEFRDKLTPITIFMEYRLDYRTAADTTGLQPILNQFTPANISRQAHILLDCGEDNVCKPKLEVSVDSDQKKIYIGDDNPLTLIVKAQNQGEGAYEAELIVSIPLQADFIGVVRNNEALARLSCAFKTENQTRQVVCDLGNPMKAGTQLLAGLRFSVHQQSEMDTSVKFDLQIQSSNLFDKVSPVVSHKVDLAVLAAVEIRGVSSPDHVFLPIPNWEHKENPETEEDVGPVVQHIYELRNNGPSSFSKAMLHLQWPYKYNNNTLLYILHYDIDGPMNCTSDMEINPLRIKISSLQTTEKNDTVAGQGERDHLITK
T1 sequence (P06756 891-1048 partner limits assumed): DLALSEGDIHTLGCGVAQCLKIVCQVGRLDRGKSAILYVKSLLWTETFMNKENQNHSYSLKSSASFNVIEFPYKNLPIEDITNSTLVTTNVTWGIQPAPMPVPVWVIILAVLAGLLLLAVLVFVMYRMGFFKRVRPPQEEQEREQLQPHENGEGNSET
T1 sequence (P05106 27-788): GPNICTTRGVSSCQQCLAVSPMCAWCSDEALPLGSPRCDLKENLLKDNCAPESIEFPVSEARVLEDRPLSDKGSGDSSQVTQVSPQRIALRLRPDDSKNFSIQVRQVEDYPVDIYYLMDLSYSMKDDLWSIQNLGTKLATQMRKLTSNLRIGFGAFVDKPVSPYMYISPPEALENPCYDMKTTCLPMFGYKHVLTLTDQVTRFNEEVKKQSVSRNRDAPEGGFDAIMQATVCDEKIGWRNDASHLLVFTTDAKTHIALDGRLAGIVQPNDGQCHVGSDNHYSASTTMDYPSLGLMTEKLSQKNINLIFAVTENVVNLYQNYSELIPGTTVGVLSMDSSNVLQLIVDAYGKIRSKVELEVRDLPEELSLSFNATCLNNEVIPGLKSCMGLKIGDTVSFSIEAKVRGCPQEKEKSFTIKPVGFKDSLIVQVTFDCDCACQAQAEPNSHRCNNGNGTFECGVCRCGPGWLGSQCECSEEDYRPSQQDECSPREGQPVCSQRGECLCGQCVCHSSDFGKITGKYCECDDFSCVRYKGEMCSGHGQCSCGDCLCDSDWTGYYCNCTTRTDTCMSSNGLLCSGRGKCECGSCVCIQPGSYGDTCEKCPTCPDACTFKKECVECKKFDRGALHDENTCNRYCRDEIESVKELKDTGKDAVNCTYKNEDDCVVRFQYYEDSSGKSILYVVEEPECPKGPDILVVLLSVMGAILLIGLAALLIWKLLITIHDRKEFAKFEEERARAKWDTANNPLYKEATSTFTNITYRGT
Method: In a different experimental setup that allowed the calculation for binding constants, we explored the affinity of RGD-equipped PTK787-cisULS-albumins. ^125I-labeled echistatin was used as a radioligand for αvβ3-integrin expressed on the surface of HUVEC. Competitive binding studies were performed by coincubating using confluent monolayers of HUVEC with the radiolabeled ligand and non-radiolabeled complexes.

[11] = four i.v. doses, 20 mg/kg conjugate or 555 μg/kg Y27632
[12] = normal rats, mean ± SEM, SB-ULS-LZM at 24, 32, 48 and 72 h, cisplatin 3 mg/kg i.v. at 24 h

Compound: c(RGDf(ε-S-acetylthioacetyl)K) [RGD-peptide]
- displacement of binding of RGDPEG-SB202190-cisULS-HSA [1]: could be displaced

Compound: CC(=O)CCCCn1c(=O)c2c(ncn2C)n(C)c1=O [PTX, 3,7-dimethyl-1-(5-oxohexyl)purine-2,6-dione]
- aSMA staining intensity [2]: reduced the intensity of both collagen type I production and aSMA
- collagen type I staining [2]: reduced the intensity of both collagen type I production and aSMA

Compound: Y27632-cisULS-LZM: Y27632-cisULS reacted with met-LZM, 1-2 Y27632 per LZM
- infiltration of macrophages, ED-1 staining morphometric score (I/R rats; [11]): significantly reduced the morphometric score of the stained areas
- α-SMA staining morphometric score (I/R rats; [11]): significantly reduced the morphometric score of the stained areas

- liver losartan as % of the cumulative dose ([3]; BDL rats, 10 min after last dose): 4%
- concentration at 10 min ([3]; rat, liver, oral, 5 mg/kg/day): 12100 ng/g
Compound: CCCCc1nc(Cl)c(CO)n1Cc1ccc(-c2ccccc2-c2nn[nH]n2)cc1 [losartan]
- hepatic fibrosis, Sirius Red staining [4]: Severe bridging
- αSMA-positive cells in liver [4]: marked accumulation of αSMA-positive cells

Compound: Oc1ccc(-c2nc(-c3ccncc3)c(-c3ccc(F)cc3)[nH]2)cc1 [SB202190, 4-(-Fluorophenyl)-2-(4-hydroxy-phenyl)-5-(4-pyridyl)-1H-imidazole]
- fraction distributed to the kidney [5]: 0.2%
- IL8 gene expression level after inhibition [6]: 40%

Compound: SB202190-cisULS-LZM
- Stability / release of SB202190 ([7]; 37° C. in PBS pH 7.4 or rat serum): high stability in buffer or serum
- Release of SB202190 ([7]; 37° C., kidney homogenate in PBS 1/3 (w/v)): continuously released free drug
- tubular cell apoptosis by TUNEL staining ([8]; as compared to untreated rats): no increase in the number of apoptotic cells
- urinary protein levels ([8]; in comparison to untreated rats): an increase in urinary protein levels
- TUNEL positive cells ([8]; normal rats, kidney sections, mean ± SEM, cisplatin at 24 h): 42.7 ± 18 numbers per field
- Renal platinum concentration ([8]; normal rats, ICP-AAS, mean ± SEM): 37.0 ± 1.2 nmol/g
- Change in body weight ([8]; normal rats, mean ± SEM): +0.3 ± 1.2 %
- Creatinine clearance [8, 12]: 0.8 ± 0.03 mL/min
- urinary protein levels [8, 12]: 29.6 ± 2.0 mg/day
- free drug in serum / serum stability ([9]; 16 mg/kg i.v. single dose, 1-72 h): free drug was absent at all time points; also recorded: remained stable in the serum
- accumulation in the kidneys ([9]; 16 mg/kg i.v., within 1 h): 20 % of the injected dose
- accumulation in proximal tubular cells (anti-LZM staining) ([9]; kidney sections): accumulation of the conjugate in proximal tubular cells was confirmed
- renal levels of free and bound drug over time ([9]; single dose 16 mg/kg i.v.): continuous levels of both free drug and bound drug during a three-day period

Compound: losartan-cisULS-LZM
- number of infiltrated macrophages (ED-1) (I/R rats; four doses 20 mg/kg/day): reduced the number of infiltrated macrophages

Compound: c1ccc(-c2n[nH]cc2-c2ccnc3ccccc23)nc1 [TKI, 3-(Pyridin-2-yl)-4-(4-quinonyl)-1H-pyrazole]
- MCP-1 gene expression in kidney (UUO rats; single dose 25 mg/kg conjugate or 630 μg/kg TKI): did not lower the expressions of MCP-1
- expression of the fibrosis marker α-SMA (UUO rats; single dose): significantly decreased
- infiltrated macrophages (ED-1 immunostaining) (UUO rats; single dose): a reduction of ED-1 immunostaining

- IC50 [10]: 134 nM
Compound: RGDPEG-avidin: avidin with RGD-peptide via vinylsulfone-PEG-NHS, average 5.4 RGD groups per avidin
